This passage reports IC50, inhibition and Activity results from ChEMBL document CHEMBL1914343, “Recent progress in synthesis and bioactivity studies of indolizines” (Eur J Med Chem, 2011).

Test [1] can be described thus: Inhibition of soybean arachidonate 15-lipoxygenase. Also noted: species or system Glycine max.
Test [2] addresses T1, Polyunsaturated fatty acid lipoxygenase ALOX15 (Oryctolagus cuniculus, UniProt P12530).
T1 sequence (P12530 whole entry): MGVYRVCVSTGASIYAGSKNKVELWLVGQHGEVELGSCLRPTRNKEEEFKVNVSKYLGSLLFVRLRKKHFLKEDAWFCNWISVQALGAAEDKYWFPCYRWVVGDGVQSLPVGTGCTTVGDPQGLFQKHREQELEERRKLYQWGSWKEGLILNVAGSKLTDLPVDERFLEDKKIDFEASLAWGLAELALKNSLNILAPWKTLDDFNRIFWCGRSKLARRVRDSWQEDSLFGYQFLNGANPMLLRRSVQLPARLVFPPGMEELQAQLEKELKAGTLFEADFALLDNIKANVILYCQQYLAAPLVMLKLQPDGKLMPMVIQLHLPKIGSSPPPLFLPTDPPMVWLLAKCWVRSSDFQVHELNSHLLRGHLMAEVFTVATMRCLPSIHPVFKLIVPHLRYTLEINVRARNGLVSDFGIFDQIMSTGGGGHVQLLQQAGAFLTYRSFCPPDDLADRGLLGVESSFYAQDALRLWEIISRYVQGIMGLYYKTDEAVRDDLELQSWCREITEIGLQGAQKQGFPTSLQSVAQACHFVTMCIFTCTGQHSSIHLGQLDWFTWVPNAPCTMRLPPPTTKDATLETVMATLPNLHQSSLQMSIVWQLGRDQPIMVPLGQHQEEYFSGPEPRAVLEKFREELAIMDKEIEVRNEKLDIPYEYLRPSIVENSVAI
Briefly: Inhibition of rabbit reticulocytes arachidonate 15-lipoxygenase.

Test [3] concerns Mycobacterium tuberculosis. The test is described as follows: Antimycobacterial activity against Mycobacterium tuberculosis H37Rv ATCC 27294 at 6.25 ug/mL by microplate alamar blue assay. The format is functional. A general note: Resazurin is reduced to fluorescent resorufin, in cell work by metabolically active cells.
For test [4], the system named is Radical scavenging activity. Briefly: Antioxidant activity assessed as DPPH radical scavenging activity at 667 uM after 15 mins. The format is functional.
The nature of test [5]: Antioxidant activity assessed as inhibition of lipid peroxidation after 30 mins. Format: functional.

pIC50: −log10 of the molar value.

Regarding `N#Cc1ccn2c(-c3ccccc3)c(-c3ccccc3)c(OS(=O)c3cccs3)c2c1` (configuration not stated), the pIC50 in test [1] was 4.68. Turning to `Cc1cc(C)c(S(=O)(=O)Oc2c(-c3ccccc3)c(-c3ccccc3)n3ccc(C#N)cc23)c(C)c1`, in test [1], the pIC50 is 4.77. `CS(=O)(=O)Oc1c(-c2ccccc2)c(-c2ccccc2)n2ccc(C#N)cc12` gave a pIC50 in test [1] of 4.66. For `N#Cc1ccn2c(-c3ccccc3)c(-c3ccccc3)c(C=O)c2c1`, the pIC50 in test [1] was 4.54; in test [2], 4.21. Further, the inhibition at 6.25 µg/mL in test [3] is 35%. In turn, `Cc1ccc(S(=O)(=O)Oc2c(-c3ccccc3)c(-c3ccccc3)n3ccccc23)cc1` gave a pIC50 in test [1] of 4.60. The molecule `CCS(=O)(=O)Oc1c(-c2ccccc2)c(-c2ccccc2)n2ccc(C#N)cc12` showed a pIC50 in test [1] of 4.55. Regarding `COc1ccc(C(=O)Oc2c(-c3ccccc3)c(-c3ccccc3)n3ccc(C#N)cc23)cc1`, the pIC50 in test [1] was 4.55. For the same molecule, in test [4], the Activity came to 5.4%. Regarding `Cc1c(-c2ccccc2)c(-c2ccccc2)n2ccc(C#N)cc12`, the pIC50 in test [1] is 4.57. In addition, the Activity in test [4] is -0.9%. Moreover, 6.25 µg/mL produced 41% inhibition in test [3].

Turning to `COc1ccc(COc2c(-c3ccccc3)c(-c3ccccc3)n3ccc(C#N)cc23)cc1`, the pIC50 in test [1] is 4.49. In addition, the Activity in test [4] is 33.3%. The molecule `CCc1c(OS(=O)(=O)c2ccc(C)cc2)c2cc(C#N)ccn2c1CC` showed a pIC50 in test [1] of 4.54. `Cc1ccc(-c2cc3cc(C#N)ccn3c2-c2ccc(C)cc2)cc1` had a pIC50 in test [1] of 4.57.

`COC(c1ccccc1)c1c(-c2ccccc2)c(-c2ccccc2)n2ccc(C#N)cc12` (configuration not stated) showed a pIC50 in test [1] of 4.68. Besides, in test [3], the inhibition at 6.25 µg/mL is 74%.

In test [1], `COc1ccccc1COc1c(-c2ccccc2)c(-c2ccccc2)n2ccc(C#N)cc12` had a pIC50 of 4.54. For the same molecule, in test [4], the Activity was determined as 1.6%. Turning to `COc1ccc(OC)c(S(=O)(=O)Oc2c(-c3ccccc3)c(-c3ccccc3)n3ccc(C#N)cc23)c1`, the pIC50 in test [1] was 4.82. In the case of `CC(O)c1c(-c2ccccc2)c(-c2ccccc2)n2ccc(C#N)cc12` (configuration not stated), in test [1], the pIC50 is 4.59. Besides, testing at 6.25 µg/mL in test [3] gave an inhibition of 78%. `Cc1ccc(S(=O)(=O)Oc2c(-c3ccccc3)c(-c3ccccc3)n3ccc(C#N)cc23)cc1C`: in test [1], the pIC50 was 4.72. For `COc1cccc(-c2c(-c3ccccc3)c(-c3ccccc3)n3ccc(C#N)cc23)c1`, the pIC50 in test [1] is 4.70; in test [5] it was < 4.00. The Activity in test [4] was -0.3%. Consider `N#Cc1ccn2c(-c3ccccc3)c(-c3ccccc3)c(CO)c2c1`, for which the pIC50 was 4.59 in test [1] and 4.47 in test [2]. Besides, the inhibition at 6.25 µg/mL in test [3] is 67%. `COc1cccc(C(=O)Oc2c(-c3ccccc3)c(-c3ccccc3)n3ccc(C#N)cc23)c1` showed a pIC50 in test [1] of 4.55. Moreover, the Activity in test [4] worked out at 1.2%. Take `COc1ccc(C(O)c2c(-c3ccccc3)c(-c3ccccc3)n3ccc(C#N)cc23)cc1` (configuration not stated): the pIC50 in test [1] is 4.77. The inhibition at 6.25 µg/mL in test [3] came to 87%. The molecule `N#Cc1ccn2c(-c3ccc(F)cc3)c(-c3ccc(F)cc3)cc2c1` showed a pIC50 in test [1] of 4.52. `CC(C)S(=O)(=O)Oc1c(-c2ccccc2)c(-c2ccccc2)n2ccc(C#N)cc12`: the pIC50 in test [1] is 4.38. In test [1], `CC(=O)c1ccn2c(-c3ccccc3)c(-c3ccccc3)c(OS(=O)(=O)c3ccc(C)cc3)c2c1` had a pIC50 of 4.64. `COc1ccc(-c2c(OS(=O)(=O)c3ccc(C)cc3)c3cc(C#N)ccn3c2-c2ccc(OC)cc2)cc1` gave a pIC50 in test [1] of 4.62. Regarding `N#Cc1ccn2c(-c3ccccc3)c(-c3ccccc3)c(C(=O)c3ccccc3)c2c1`, the pIC50 in test [1] is 4.64; in test [2], 4.37. This molecule also registered an inhibition at 6.25 µg/mL in test [3] of 33%.

Turning to `CN(C)S(=O)(=O)Oc1c(-c2ccccc2)c(-c2ccccc2)n2ccc(C#N)cc12`, the pIC50 in test [1] is 4.60. As to `CC(O)(c1ccccc1)c1c(-c2ccccc2)c(-c2ccccc2)n2ccc(C#N)cc12` (configuration not stated), the pIC50 in test [1] was 4.77. The molecule also registered an inhibition at 6.25 µg/mL in test [3] of 71%. In turn, `N#Cc1ccn2c(-c3ccccc3)c(-c3ccccc3)c(OCc3ccc(F)cc3)c2c1` showed a pIC50 in test [1] of 4.46. For the same molecule, the Activity in test [4] came to 1.8%. The molecule `N#Cc1ccn2c(-c3ccccc3)c(-c3ccccc3)c(OS(=O)(=O)c3ccc(Cl)cc3)c2c1` gave a pIC50 in test [1] of 4.66. For the molecule `COc1ccc(S(=O)(=O)Oc2c(-c3ccc(C)cc3)c(-c3ccc(C)cc3)n3ccc(C#N)cc23)cc1`, the pIC50 in test [1] was 4.60. For the molecule `N#Cc1ccn2c(-c3ccccc3)c(-c3ccccc3)c(OCc3cccc(Cl)c3)c2c1`, the pIC50 in test [1] was 4.51. In addition, the Activity in test [4] was -0.1%.

As for `N#Cc1ccn2c(-c3ccccc3)c(-c3ccccc3)c(OS(=O)(=O)c3ccccc3)c2c1`, the pIC50 in test [1] was 4.62. Consider `COc1ccc(S(=O)(=O)Oc2c(-c3ccccc3)c(-c3ccccc3)n3ccc(C#N)cc23)cc1`, for which, in test [1], the pIC50 was 4.60. In test [1], `CC(C)c1ccc(S(=O)(=O)Oc2c(-c3ccccc3)c(-c3ccccc3)n3ccc(C#N)cc23)cc1` had a pIC50 of 4.80.

In test [1], `Cc1ccc(S(=O)(=O)Oc2c(-c3ccc(F)cc3)c(-c3ccc(F)cc3)n3ccc(C#N)cc23)cc1` had a pIC50 of 4.66.

On to `COc1ccc(S(=O)(=O)Oc2c(-c3ccccc3)c(-c3ccccc3)n3ccc(C#N)cc23)c(OC)c1`, for which the pIC50 in test [1] is 4.57.

In the case of `Cc1ccc(S(=O)(=O)Oc2c(-c3ccccc3)c(-c3ccccc3)n3ccc(C=O)cc23)cc1`, in test [1], the pIC50 is 4.70. Take `CS(=O)(=O)c1ccc(S(=O)(=O)Oc2c(-c3ccccc3)c(-c3ccccc3)n3ccc(C#N)cc23)cc1`: the pIC50 in test [1] was 4.62. For the molecule `N#Cc1ccn2c(-c3ccccc3)c(-c3ccccc3)c(-c3ccco3)c2c1`, the pIC50 in test [1] was 4.62; in test [5], < 4.00. Besides, the Activity in test [4] is -0.6%. On to `Cc1ccc(COc2c(-c3ccccc3)c(-c3ccccc3)n3ccc(C#N)cc23)cc1`, for which, in test [1], the pIC50 is 4.43. Also, the Activity in test [4] was -0.8%.

On to `N#Cc1ccn2c(-c3ccccc3)c(-c3ccccc3)c(OCc3ccccc3)c2c1`, for which, in test [1], the pIC50 is 4.51. The Activity in test [4] was determined as 0.8%. `Cc1ccc(-c2c(OS(=O)(=O)c3ccc(C)cc3)c3cc(C#N)ccn3c2-c2ccc(C)cc2)cc1` showed a pIC50 in test [1] of 4.70. In turn, `CCCCc1c(OS(=O)(=O)c2ccc(C)cc2)c2cc(C#N)ccn2c1CCCC` showed a pIC50 in test [1] of 4.52. Same read-out and setting: the value for `Cc1ccc(S(=O)(=O)c2c(-c3ccccc3)c(-c3ccccc3)n3ccc(C#N)cc23)cc1` was 4.54.

On to `N#Cc1ccn2c(-c3ccccc3)c(-c3ccccc3)c(-c3ccsc3)c2c1`, for which the figures for the pIC50 in test [1] and in test [5] were 4.72 and < 4.00, respectively. The Activity in test [4] turned out to be 0%. Regarding `N#Cc1ccn2c(-c3ccccc3)c(-c3ccccc3)c(OCc3ccc(Cl)cc3)c2c1`, in test [1], the pIC50 is 4.51. Besides, the Activity in test [4] was 1.3%. Consider `N#Cc1ccn2c(-c3ccccc3)c(-c3ccccc3)c(-c3ccccc3)c2c1`, for which the results for the pIC50 in test [1] and in test [5] were 4.55 and < 4.00, respectively. Further, at 6.25 µg/mL the inhibition in test [3] was 8%.

For the molecule `N#Cc1ccn2c(-c3ccccc3)c(-c3ccccc3)c(OCOC(COCc3ccccc3)COCc3ccccc3)c2c1`, the pIC50 in test [1] was 4.51. Moreover, the Activity in test [4] stood at 4.2%.

`N#Cc1ccn2c(-c3ccccc3)c(-c3ccccc3)c(OCOCc3ccccc3)c2c1`: the pIC50 in test [1] is 4.57; in test [2] it was 4.41. Further, the Activity in test [4] stood at 0.1%. In turn, `COc1ccccc1C(=O)Oc1c(-c2ccccc2)c(-c2ccccc2)n2ccc(C#N)cc12` showed a negative-log IC50 (pIC50) in test [1] of 4.52. Also, in test [4], the Activity was 4.7%. In the case of `C=Cc1c(-c2ccccc2)c(-c2ccccc2)n2ccc(C#N)cc12`, the pIC50 in test [5] was < 4.00. As for `N#Cc1ccn2c(-c3ccccc3)c(-c3ccccc3)c(OS(=O)(=O)c3ccc(C(F)(F)F)cc3)c2c1`, the pIC50 in test [1] is 4.64. On to `N#Cc1ccn2c(-c3ccc(Cl)cc3)c(-c3ccc(Cl)cc3)cc2c1`, for which, in test [1], the pIC50 is 4.48. Turning to `N#Cc1ccn2c(-c3ccccc3)c(-c3ccccc3)c(Br)c2c1`, the inhibition at 6.25 µg/mL in test [3] is 69%. The pIC50 in test [5] was < 4.00. In the case of `COc1ccccc1-c1c(-c2ccccc2)c(-c2ccccc2)n2ccc(C#N)cc12`, the pIC50 was 4.70 in test [1] and < 4.00 in test [5]. Besides, in test [4], the Activity is -0.2%. Take `O=c1c(O)c(-c2ccc(O)c(O)c2)oc2cc(O)cc(O)c12` [QUERCETIN]: the results for the pIC50 in test [1] and in test [2] were 4.29 and 4.43, respectively.

For `N#Cc1ccn2c(-c3ccccc3)c(-c3ccccc3)c(-c3cccs3)c2c1`, the pIC50 was 4.70 in test [1] and < 4.00 in test [5]. For the same molecule, in test [4], the Activity was -1.8%. For `Cc1ccc(S(=O)(=O)Oc2c(-c3ccc(Cl)cc3)c(-c3ccc(Cl)cc3)n3ccc(C#N)cc23)cc1`, in test [1], the pIC50 was 4.70.

With `Cc1ccccc1S(=O)(=O)Oc1c(-c2ccccc2)c(-c2ccccc2)n2ccc(C#N)cc12`, the pIC50 in test [1] is 4.66.

In the case of `N#Cc1ccn2c(-c3ccccc3)c(-c3ccccc3)c(Cc3ccccc3)c2c1`, the pIC50 in test [1] was 4.57; in test [2], 4.34. In test [3], this molecule gave an inhibition at 6.25 µg/mL of 43%. The molecule `N#Cc1ccn2c(-c3ccccc3)c(-c3ccccc3)c(OS(=O)c3ccsc3)c2c1` (configuration not stated) had a pIC50 in test [1] of 4.64.

For orientation: pIC50 means the negative decadic logarithm of the IC50, by convention in mol/L. A word on the inhibition: it is the change of the read-out against control, counted positive when it falls. Read a low inhibition as a response near the control.
